Laboratory results reported in article PMC3805573, “Methylglyoxal Evokes Pain by Stimulating TRPA1” (PLoS ONE, 2013).

Experiments:
mouse TRPA1 = target: T1, mouse TRPA1 (Mus musculus, UniProt Q8BLA8); experiment: [Ca2+]i-responses in CHO cells expressing mouse TRPA1; assay type: cell-based; conditions: CHO cells expressing mouse TRPA1, extracellular application; read-out: EC50, increases in [Ca2+]i
T1 construct: expressed in transfected cells; host or cells: CHO cells
Description: (§1) Untransfected CHO cells and CHO cells expressing mouse or human TRPA1 were grown in MEM Glutamax or AQ medium supplemented with penicillin (100 U/ml), streptomycin (100 µg/ml), and FCS (10%). Plasmids encoding mutated TRPA1 channels were kindly provided by Dr. Ardem Patapoutian. All media, serum and antibiotics were from Invitrogen (Paisley, UK) or Sigma (Poole, UK).
(§2) Cells were loaded with 2 µM Fura-2 AM (Molecular Probes, Paisley, UK) in the presence of 1 mM probenecid for ∼1 hr. The experiments were performed in a physiological saline solution containing (in mM) 140 NaCl, 5 KCl, 10 glucose, 10 HEPES, 2 CaCl2, and 1 MgCl2, buffered to pH 7.4 with NaOH. Compounds were applied to cells by local continuous microperfusion of solution through a fine tube placed in close proximity of the cells studied. Images of a group of cells were captured every 2 sec using 340 and 380 nm excitation wavelengths with emission measured at 520 nm with a microscope based imaging system (PTI, New Jersey). […]
(§3) Changes in intracellular calcium ([Ca^2+]i) in response to agonists were determined in TRPA1 expressing CHO cells and MDCK cells using a Flexstation 3 (Molecular Devices). […] Basal emission ratios (340 nm/380 nm) were measured and changes in ratio determined at various times after compound addition.

untransfected CHO cells = experiment: [Ca2+]i in untransfected CHO cells; assay type: cell-based; conditions: untransfected CHO cells or absence of extracellular Ca2+ (data not shown)
Description: as §1, §2, §3

TRPA1 [1] = experiment: Excised inside-out patches, TRPA1 channel activity; assay type: cell-based; conditions: inside-out configuration, applied to intracellular face
Description: (§4) DRG neurons and TRPA1 CHO cells were studied under voltage-clamp conditions using an Axopatch 200B amplifier and pClamp 10.0 software (Molecular Devices, Sunnyvale, CA). Except where stated otherwise, whole cell recordings were performed at a holding potential of –60 mV using an extracellular solution with the composition described above for [Ca^2+]i measurements. Borosilicate glass pipettes (2–5 MΩ, 75–80% series resistance compensation) were filled with (in mM) 140 KCl, 1 CaCl2, 2 MgATP, 10 EGTA, and 10 HEPES buffered to pH 7.4 (KOH). Excised inside-out patches were recorded using a Ca^2+-free solution containing (in mM) 140 NaCl, 5 KCl, 1 MgCl2, 10 HEPES and 1 EGTA, pH 7.4 (NaOH) in the pipettes and perfused with 140 KCl, 2 MgATP, 1 EGTA, and 10 HEPES (pH 7.4). DRG neurons were studied using an intracellular solution containing (in mM) 140 CsCl, 1 CaCl2, 2 MgATP, 10 EGTA and 10 HEPES, pH 7.4 (CsOH). Drugs were applied by local microperfusion with a rapid solution changer (RSC-200, Biologic, Claix, France).

DRG neurons = experiment: [Ca2+]i-responses in cultured DRG neurons; assay type: cell-based, mice
Description: DRG neurons were prepared from adult male or female mice using methods described previously. Isolated neurons were maintained in MEM AQ (5.6 mM glucose) supplemented with 10% fetal bovine serum, 100 U/ml penicillin, 100 µg/ml streptomycin and 50 ng/ml NGF (Promega, Southampton, UK) for less than 24 hours before experimentation.
(§5) Cells were loaded with 2 µM Fura-2 AM (Molecular Probes, Paisley, UK) in the presence of 1 mM probenecid for ∼1 hr. The experiments were performed in a physiological saline solution containing (in mM) 140 NaCl, 5 KCl, 10 glucose, 10 HEPES, 2 CaCl2, and 1 MgCl2, buffered to pH 7.4 with NaOH. Compounds were applied to cells by local continuous microperfusion of solution through a fine tube placed in close proximity of the cells studied. Images of a group of cells were captured every 2 sec using 340 and 380 nm excitation wavelengths with emission measured at 520 nm with a microscope based imaging system (PTI, New Jersey). Analyses of emission intensity ratios at 340 nm/380 nm excitation (R, in individual cells) were performed using the ImageMaster suite of software.

[2] = tested on: human TRPA1 C621S, C641S or C665S; experiment: [Ca2+]i-responses of human TRPA1 point mutants C621S, C641S, C665S; assay type: cell-based; conditions: human TRPA1 single point mutants vs wildtype
Description: as §1, §2, §3

TRPA1 [3] = experiment: Outward TRPA1 currents in absence of Ca2+, effect of DTT; assay type: cell-based; conditions: MG 1 mM, +60 mV, Ca2+-free
Description: as §4
It is possible that MG stimulates TRPA1 through formation of reversible hemithioacetals with cysteine residues other than those examined here, [40]. To investigate this possibility we examined the effect of the reducing agent dithiothreitol (DTT, 2 mM) on outward TRPA1 currents recorded in the absence of Ca^2+ (5 mM BAPTA intracellularly, 1 mM EGTA extracellularly) to avoid Ca^2+-mediated inactivation or desensitization. We used DTT to determine whether disulfide bridge formation or reversible noncovalent interactions contribute to the agonist activity of MG. DTT is expected to rapidly reduce cystine bridges to free thiols, but also to form hemithioacetals with MG, thereby accelerating current decay. Covalent modification of arginine and lysine residues by MG and modification of cysteine residues by AITC are on the other hand resistant to DTT [31]. […] This is consistent with the expected oxidative formation of cystine bridges and their reduction by DTT [4]. The contrast between the stable currents produced by H2O2 and the spontaneously reversible currents evoked by MG highlights the reversible nature of the interaction between MG and TRPA1. […] We also observed that repeated applications of MG and H2O2 evoked reproducible current responses of similar amplitudes, whereas an application of AITC prevented subsequent channel activation by AITC challenges (Fig. 4C-E). We conclude that MG acts through a reversible interaction with TRPA1 and that H2O2 relies on DTT sensitive oxidative modification of TRPA1 protein for its activity. […] In contrast, the covalent modification produced by AITC appears irreversible and renders TRPA1 refractory to subsequent activation.

beta cells = experiment: [Ca2+]i-responses in pancreatic beta cells; assay type: cell-based, mice; conditions: MG 0.5 mM (Fig. 7A)
Description: Mouse islets of Langerhans were isolated from the exocrine pancreas by collagenase digestion (1 mg/ml, type XI, Sigma, Poole, UK). Islets were dissociated by 15 min incubation in trypsin (0.5%, Sigma, Poole, UK) followed by trituration through a flame polished glass Pasteur pipette and the islet cells were seeded on glass cover slips.
as §5

T1 sequence (Q8BLA8 whole entry): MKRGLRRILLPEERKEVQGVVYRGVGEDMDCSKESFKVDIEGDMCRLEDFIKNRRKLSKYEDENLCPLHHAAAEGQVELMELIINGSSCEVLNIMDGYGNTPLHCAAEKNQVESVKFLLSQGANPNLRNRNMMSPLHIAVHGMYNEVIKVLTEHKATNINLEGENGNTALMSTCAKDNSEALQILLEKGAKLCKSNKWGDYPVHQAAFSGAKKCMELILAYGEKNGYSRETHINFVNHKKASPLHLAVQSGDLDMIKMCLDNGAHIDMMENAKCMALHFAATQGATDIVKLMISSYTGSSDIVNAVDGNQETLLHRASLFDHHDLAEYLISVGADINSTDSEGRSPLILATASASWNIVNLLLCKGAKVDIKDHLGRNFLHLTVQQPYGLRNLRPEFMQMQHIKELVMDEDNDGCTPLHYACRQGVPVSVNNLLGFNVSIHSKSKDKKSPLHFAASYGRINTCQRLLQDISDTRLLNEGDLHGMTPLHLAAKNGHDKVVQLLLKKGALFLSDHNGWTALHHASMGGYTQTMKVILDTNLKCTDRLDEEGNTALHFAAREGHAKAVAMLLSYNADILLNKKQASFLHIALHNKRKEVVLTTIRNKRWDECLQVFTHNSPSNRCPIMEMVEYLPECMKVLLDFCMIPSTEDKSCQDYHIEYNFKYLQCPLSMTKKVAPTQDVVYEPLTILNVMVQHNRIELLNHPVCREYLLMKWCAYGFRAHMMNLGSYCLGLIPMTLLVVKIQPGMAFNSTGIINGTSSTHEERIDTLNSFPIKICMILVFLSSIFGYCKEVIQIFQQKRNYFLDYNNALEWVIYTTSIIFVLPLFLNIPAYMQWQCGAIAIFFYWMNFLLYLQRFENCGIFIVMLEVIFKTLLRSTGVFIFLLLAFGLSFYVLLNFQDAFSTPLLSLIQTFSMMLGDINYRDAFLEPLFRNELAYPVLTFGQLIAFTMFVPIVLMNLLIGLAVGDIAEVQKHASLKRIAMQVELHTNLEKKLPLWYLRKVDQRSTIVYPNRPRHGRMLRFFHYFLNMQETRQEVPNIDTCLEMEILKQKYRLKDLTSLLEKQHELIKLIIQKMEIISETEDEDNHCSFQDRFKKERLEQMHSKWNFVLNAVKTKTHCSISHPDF

Question: For `CC(=O)C=O` [MG, methylglyoxal], which EC50 (mouse TRPA1) is on record?
Answer: 900 ± 100 µM

Question: What about the “effect on [Ca2+]i” value (untransfected CHO cells) of the same molecule?
Answer: had no effect

Question: What about the EC50 (TRPA1 [1]) of the same molecule?
Answer: 74 µM

Question: And the “capsaicin-sensitive DRG neurons with [Ca2+]i-responses” value (DRG neurons; neurons from Trpa1+/+ mice (240 of 333))?
Answer: 72%

Question: What about the “DRG neurons with [Ca2+]i-responses” value (DRG neurons; neurons from Trpa1-/- mice (1 of 322)) of the same molecule?
Answer: 0%

Question: What about the “effect of substitutions C621S, C641S, C665S on potency of MG” value [2] of the same molecule?
Answer: None of these amino acid substitutions affected the potency of MG significantly

Question: What about the “effect of DTT (2 mM) on agonist-evoked TRPA1 current” value (TRPA1 [3]) of the same molecule?
Answer: dramatically accelerated the TRPA1 current decay

Question: And the “outward TRPA1 current after removal of agonist” value (TRPA1 [3])?
Answer: partially decayed with time after removal of MG

Question: And the “[Ca2+]i-responses in beta cells” value (beta cells)?
Answer: evoked [Ca^2+]i-responses in a subpopulation of tolbutamide sensitive beta cells

Question: And the “number of MG sensitive cells and response amplitude, Trpa1+/+ vs Trpa1-/- cultures” value (beta cells)?
Answer: similar
